Here are results for 1 compound from patent publication US5418219A, “Pharmaceutical composition for treatment of adult respiratory distress syndrome containing human ANP” (Suntory Limited, priority 1992, dated 1995).

Assay [1] deals with pigs in which lung injury was induced. As to the kind of experiment: Pulmonary arterial pressure (PAP) in pigs with HCl-induced pulmonary injury. The settings on record: pig. The assay is classed as in vivo, New Yorkshire male pigs. As for the experimental part: (§1) A Teflon catheter was inserted into the femoral artery of each animal for measuring blood pressure, blood ANP level and blood gas. At the same time, a pulmonary arterial cathether was inserted through the right cephalic vein for recording the changes in pulmonary arterial pressure. Pulmonary arterial pressure (PAP) and right atrial pressure (RAP) were measured with thermistor-tipped pressure transducers. Pulmonary capillary wedge pressure (PCWP) was measured with a baloon-fitted catheter. Cardiac output (CO) was calculated from the average of three measurements by the thermodilution method. Body temperature was measured with a thermistor inserted into the pulmonary artery and maintained at 37°-38° C. with the aid of a heat jacket. Electrocardiograms were induced from the four limbs and the ECC waveform and the number of heart beats were measured.

The test system is the same in assay [2]. Kind of assay: Partial pressure of oxygen in arterial blood (PaO2) in pigs with HCl-induced pulmonary injury. The settings on record: pig. The assay is classed as in vivo, New Yorkshire male pigs. Here is the method:
as §1

Assay [3] shares this test system. As to the kind of experiment: Blood pressure (BP) in pigs with HCl-induced pulmonary injury. Type of assay: in vivo, New Yorkshire male pigs. The settings on record: pig. Here is the method:
as §1

Assay [4] shares this test system. As to the kind of experiment: Urine excretion in pigs with HCl-induced pulmonary injury. The note with it: pig, ANP versus furosemide.
Method: New Yorkshire male pigs weighing 16-24 kg were used in all experiments. The animals were allowed neither food nor water for 44 hr before test. They were initially anesthetized by intravenous injection of pentobarbital sodium (2.0 mg/kg) and pancuronium bromide (0.1 mg/kg) and, thereafter, the anesthetization was maintained by sustained intravenous injection of pentobarbital sodium (0.5 mg/kg/hr) and pancuronium bromide (0.1 mg/kg/hr). The animals were placed in prone position and ventilated at a frequency of 17 breaths/min with a tidal volume of 10-15 ml/kg, with the partial pressure of oxygen in arterial blood (PaO2) being held at 35-45 Torr. Physiological saline (5 ml/kg) was initially infused by intravenous injection, followed by sustained intravenous injection for 30 min at a rate of 4 ml/kg/hr.
A cannula was inserted into the bladder of each animal and urine samples were collected at 30-min intervals. Blood sampling and hemodynamic measurements were also conducted at 30-min Intervals but intermediate between collections of urine samples. Blood samples for assaying blood α-hANP levels were collected into chilled glass tubes each containing EDTA (0.1 mg/ml) and aprotinin (500 KIU/ml). […] Plasma α-hANP levels were measured by the RIA method using a rabbit anti α-hANP antibody. […]
Where [5] appears, read: baseline (before HCl aspiration).

On to `NS(=O)(=O)c1cc(C(=O)O)c(NCc2ccco2)cc1Cl` [furosemide], for which the PAP in assay [1] (after 60 min of administration (120 min after HCl aspiration), control 18.9±2.4) came out at 20.4±2.3 mmHg; in assay [1] (setting [5]) it was 12.7±1.9 mmHg. Moreover, in assay [2], the “compensation of the decrease in PaO2 induced by HCl aspiration” value is on record as “could be compensated”. For the same compound, the PaO2 in assay [2] (60 min after HCl aspiration (before drug administration)) is on record as 120.5±33.1 mmHg; in assay [2] (60 min after administration (180 min after HCl aspiration), control 171.1), 287.9±78.2 mmHg; in assay [2] (setting [5]), 490.3±29.0 mmHg. In assay [3], the “BP lowering action / changes in BP” value is listed as “No significant changes”. In assay [4], the “intensity of diuretic action” value is “comparable to each other”.
